Reference: publication PMC7508416 (Chemical research in toxicology, 2020)
Read-outs that look alike come from different tables or passages of the source. Marks after values point to notes of the source that are not given here.

Experiments:
[1] = gavage of a technical mixture containing 35% 2IPPDPP; cited from earlier work
[2] = parameters: species or system human; conditions: pooled urine of children aged 3-6; tentative, exact mass match
[3] = for % Depletion: after 60 min (Eq. 1); for Percentage of Initial Parent Administration (Mean ± Std Dev): Total: parents plus quantified metabolites; for Initial parent mass unaccounted for after quantifying suspected metabolites: metabolites with authentic standards available
[4] = for Depletion rate, slope, first-order kinetics / Depletion rate, slope, zero-order kinetics: linear regression
[5] = cited from earlier work
[6] = cited from earlier work; remark: listed apart in the source
[7] = cited from earlier work; remark: listed apart in the source
[8] = 2 μM; herring gull liver microsomes; cited from earlier work
[9] = polar bear liver microsomes; cited from earlier work
[10] = human liver microsomes; cited from earlier work
[11] = 1 μM, s9 & sulfatase & glucuronidase
[12] = 10 μM, s9 & sulfatase & glucuronidase

| Molecule | Percentage of Initial Parent Administration (Mean ± Std Dev): parent compound ([3]; 1 μM, Abiotic Control) [%] | % Depletion ([3]; 1 μM, Abiotic Control) [%] | Percentage of Initial Parent Administration (Mean ± Std Dev): parent compound ([3]; 1 μM, Heat-inactivated s9) [%] | % Depletion ([3]; 1 μM, Heat-inactivated s9) [%] | Percentage of Initial Parent Administration (Mean ± Std Dev): parent compound ([3]; 1 μM, s9) [%] | Percentage of Initial Parent Administration (Mean ± Std Dev): parent compound ([3]; 1 μM, s9 & glucuronidase) [%] | % Depletion ([3]; 1 μM, s9 & glucuronidase) [%] | Percentage of Initial Parent Administration (Mean ± Std Dev): parent compound ([3]; 1 μM, s9 & sulfatase) [%] | % Depletion ([3]; 1 μM, s9 & sulfatase) [%] | % Depletion ([3]; 1 μM, s9) [%] | Percentage of Initial Parent Administration (Mean ± Std Dev): parent compound ([3]; 1 μM, unprocessed spike) [%] | Percentage of Initial Parent Administration (Mean ± Std Dev): Total ([3]; 1 μM, unprocessed spike) [%] | Percentage of Initial Parent Administration (Mean ± Std Dev): parent compound ([3]; 10 μM, Abiotic Control) [%] | % Depletion ([3]; 10 μM, Abiotic Control) [%] | Percentage of Initial Parent Administration (Mean ± Std Dev): parent compound ([3]; 10 μM, Heat-inactivated s9) [%] | % Depletion ([3]; 10 μM, Heat-inactivated s9) [%] | Percentage of Initial Parent Administration (Mean ± Std Dev): parent compound ([3]; 10 μM, s9) [%] | Percentage of Initial Parent Administration (Mean ± Std Dev): parent compound ([3]; 10 μM, s9 & glucuronidase) [%] | % Depletion ([3]; 10 μM, s9 & glucuronidase) [%] | % Depletion ([3]; 10 μM, s9 & sulfatase) [%] | further results |
| --- | --- | --- | --- | --- | --- | --- | --- | --- | --- | --- | --- | --- | --- | --- | --- | --- | --- | --- | --- | --- | --- |
| 2-phenyl-4H,−4,4-dimethyl-1,1,3,2 -benzodioxapho-sphoran-2-oxide |  |  |  |  |  |  |  |  |  |  |  |  |  |  |  |  |  |  |  |  | Detection in rabbit bile [1]: detected; Detection in human urine samples (number of samples out of 9) [2]: 1 |
| CC(C)c1ccccc1OP(=O)(Oc1ccccc1)Oc1ccccc1 [2IPPDPP, 2-isopropylphenyl diphenyl phosphate] | 105 ± 20 | 0 | 101 ± 8 | 0 | 56 ± 10 | 65 ± 3 | 35 | 64 ± 6 | 36 | 44 | 100 ± 13 | 100 ± 13 | 103 ± 10 | 0 | 103 ± 11 | 0 | 77 ± 5 | 82 ± 3 | 18 | 20 | Percentage of Initial Parent Administration (Mean ± Std Dev): parent compound [3, 11]: 67 ± 4%; % Depletion [3, 11]: 33%; Percentage of Initial Parent Administration (Mean ± Std Dev): parent compound [3, 12]: 84 ± 4%; % Depletion [3, 12]: 16%; % Depletion ([3]; 10 μM, s9): 23%; Percentage of Initial Parent Administration (Mean ± Std Dev): parent compound ([3]; 10 μM, unprocessed spike): 100 ± 9%; Initial parent mass unaccounted for after quantifying suspected metabolites [3]: approximately 20%; Depletion rate, slope, first-order kinetics ([4]; 1 μM dose): −0.010 ln[nmol]/min/mg protein; Depletion rate, slope, zero-order kinetics ([4]; 1 μM dose): −0.013 ^* nmol/min/mg protein; Depletion rate, slope, first-order kinetics ([4]; 10 μM dose): −0.0048 ln[nmol]/min/mg protein; Depletion rate, slope, zero-order kinetics ([4]; 10 μM dose): −0.092 nmol/min/mg protein |
| CC(C)c1ccc(OP(=O)(Oc2ccccc2)Oc2ccccc2)cc1 [4IPPDPP, 4-isopropylphenyl diphenyl phosphate] | 108 ± 23 | 0 | 82 ± 5 | 18 | 27 ± 4 | 27 ± 1 | 73 | 29 ± 3 | 71 | 73 | 100 ± 2 | 100 ± 13 | 94 ± 6 | 6 | 97 ± 10 | 3 | 55 ± 3 | 57 ± 2 | 43 | 46 | Percentage of Initial Parent Administration (Mean ± Std Dev): parent compound [3, 11]: 32 ± 3%; % Depletion [3, 11]: 68%; Percentage of Initial Parent Administration (Mean ± Std Dev): parent compound ([3]; 10 μM, s9 & sulfatase): 54 ± 1%; Percentage of Initial Parent Administration (Mean ± Std Dev): parent compound [3, 12]: 55 ± 4%; % Depletion [3, 12]: 45%; % Depletion ([3]; 10 μM, s9): 45%; Percentage of Initial Parent Administration (Mean ± Std Dev): parent compound ([3]; 10 μM, unprocessed spike): 100 ± 3%; Initial parent mass unaccounted for after quantifying suspected metabolites [3]: approximately 20%; Depletion rate, slope, first-order kinetics ([4]; 1 μM dose): −0.015 ln[nmol]/min/mg protein; Depletion rate, slope, zero-order kinetics ([4]; 1 μM dose): −0.042 nmol/min/mg protein; Depletion rate, slope, first-order kinetics ([4]; 10 μM dose): −0.0034 ln[nmol]/min/mg protein; Depletion rate, slope, zero-order kinetics ([4]; 10 μM dose): −0.097 nmol/min/mg protein |
| CC(C)(C)c1ccc(OP(=O)(Oc2ccccc2)Oc2ccccc2)cc1 [4tBPDPP, 4-tert-butylphenyl diphenyl phosphate] | 84 ± 8 | 9 | 81 ± 6 | 12 | 59 ± 11 | 56 ± 5 | 43 | 61 ± 5 | 39 | 41 | 92 ± 4 | 100 ± 4 | 81 ± 1 | 8 | 79 ± 11 | 12 | 83 ± 2 | 72 ± 5 | 23 | 23 | Percentage of Initial Parent Administration (Mean ± Std Dev): parent compound [3, 11]: 60 ± 6%; % Depletion [3, 11]: 39%; Percentage of Initial Parent Administration (Mean ± Std Dev): parent compound ([3]; 10 μM, s9 & sulfatase): 73 ± 9%; Percentage of Initial Parent Administration (Mean ± Std Dev): parent compound [3, 12]: 71 ± 6%; % Depletion [3, 12]: 25%; % Depletion ([3]; 10 μM, s9): 12%; Percentage of Initial Parent Administration (Mean ± Std Dev): parent compound ([3]; 10 μM, unprocessed spike): 89 ± 1%; Percent depletion lower than that of TPHP ([3]; human, pH 7.4): 30–45%; Depletion rate, slope, first-order kinetics ([4]; 1 μM dose): −0.013 ln[nmol]/min/mg protein; Depletion rate, slope, zero-order kinetics ([4]; 1 μM dose): −0.031 nmol/min/mg protein; Depletion rate, slope, first-order kinetics ([4]; 10 μM dose): −0.0013 ln[nmol]/min/mg protein; Depletion rate, slope, zero-order kinetics ([4]; 10 μM dose): −0.082 nmol/min/mg protein; Parent converted to DPHP ([5]; 2 μM, 100-min incubation): 41% |
| O=P(O)(Oc1ccccc1)Oc1ccccc1 [DPHP, diphenyl phosphate] |  |  |  |  |  |  |  |  |  |  |  |  |  |  |  |  |  |  |  |  | Geometric mean urinary concentration [6]: around 10 nM |
| CC(C)c1ccccc1OP(=O)(Oc1ccccc1C(C)C)Oc1ccccc1C(C)C [T2IPPP] |  |  |  |  |  |  |  |  |  |  |  |  |  |  |  |  |  |  |  |  | DPHP formation following incubation ([5]; ref Strobel et al., 2018): not detected |
| O=P(Oc1ccccc1)(Oc1ccccc1)Oc1ccccc1 [TPHP, triphenyl phosphate, reference compound] | 94 ± 7 | 6 | 88 ± 2 | 12 | 31 ± 2 | 31 ± 3 | 69 | 23 ± 1 | 77 | 69 | 100 ± 5 | 100 ± 5 | 95 ± 1 | 5 | 94 ± 1 | 6 | 68 ± 1 | 67 ± 1 | 33 | 37 | Mass of parent lower in the +S9 treatment compared to the unprocessed spike ([3]; 1 μM): 69–77%; Mass of parent lower in the +S9 treatment compared to the unprocessed spike ([3]; 10 μM): 32–37%; Percentage of Initial Parent Administration (Mean ± Std Dev): parent compound ([3]; 10 μM, s9 & sulfatase): 63 ± 0.2%; % Depletion ([3]; 10 μM, s9): 32%; Percentage of Initial Parent Administration (Mean ± Std Dev): parent compound ([3]; 10 μM, unprocessed spike): 100 ± 1%; Initial parent depleted in the abiotic control group ([3]; both doses): 5–6%; OH-TPHP glucuronide conjugates, share of the initial TPHP treatment [7]: 65%; Depletion rate ([4]; 1 μM dose): 24 pmol/min/mg; Depletion rate, slope, first-order kinetics ([4]; 1 μM dose): −0.032 ^* ln[nmol]/min/mg protein; Depletion rate, slope, zero-order kinetics ([4]; 1 μM dose): −0.024 nmol/min/mg protein; Depletion rate, slope, first-order kinetics ([4]; 10 μM dose): −0.0030 ln[nmol]/min/mg protein; Depletion rate, slope, zero-order kinetics ([4]; 10 μM dose): −0.032 nmol/min/mg protein; Depletion rate [8]: 22 pmol/min/mg; Percentage of DPHP formation following incubation [9]: 97%; Percentage of DPHP formation following incubation [10]: 22% |
| C=C(C)c1ccccc1OP(=O)(Oc1ccccc1)Oc1ccccc1 [mono-(o-isopropenylphenyl)-diphenyl phosphate] |  |  |  |  |  |  |  |  |  |  |  |  |  |  |  |  |  |  |  |  | Detection in rabbit bile [1]: detected |
| hydroxy-o-isopropylphenyl diphenyl phosphate [Hydroxylated 2IPPDPP] |  |  |  |  |  |  |  |  |  |  |  |  |  |  |  |  |  |  |  |  | Detection in human urine samples (number of samples out of 9) [2]: not detected |
| mono-isopropenylphenyl diphenyl phosphate |  |  |  |  |  |  |  |  |  |  |  |  |  |  |  |  |  |  |  |  | Detection in human urine samples (number of samples out of 9) [2]: 1 |
